Experimental data taken from US6660804B1, “Cyclodextrin polymers and/or cyclodextrin derivatives with complexing properties and ion-exchange properties and method for the production thereof” (Universite des Sciences et Technologies de Lille, priority 1999, dated 2003).

Tests used:
[1] = Diffusion of CI Basic Red 22 through 12000-14000 d dialysis membrane (complexing); assay type: physicochemical; conditions: 50 ml 10^-4 M dye plus 0.2837 g additive inside membrane, 250 ml distilled water outside, after 5 hours of dialysis; dye alone 0.2722
Description: Three solutions of 50 ml of 10^−4 M CI Basic Red 22 basic dye were introduced into 12000-14000 d dialysis membranes. The first fraction contained the dye alone; the second contained the dye and 0.2837 g of β cyclodextrin (i.e., 5×10^−3 mol/l); the third contained the dye and 0.2837 g of soluble cyclodextrin copolymer obtained using the method described in Example 1. The three membranes with the three different dye solutions were each immersed in 250 ml of distilled water. Diffusion of the dye from the interior of the membrane into the distilled water surrounding the membrane was monitored by determining the absorbance of the external solution at 540 nanometers (nm). The absorbance values obtained for the external solutions for the three fractions after 5 hours of dialysis were 0.2722 for the first fraction, 0.1873 for the second fraction and only 0.0237 for the third fraction.

[2] = Diffusion of 2-naphthol through 12000-14000 d dialysis membrane (complexing); assay type: physicochemical; conditions: 50 ml 10^-3 M 2-naphthol plus 0.2837 g β cyclodextrin or 0.3317 g copolymer inside membrane, 250 ml distilled water outside, after 76 hours of dialysis; 2-naphthol alone 0.2865
Description: Three solutions of 50 ml of 10−3 M 2-naphthol were introduced into 12000-14000 d dialysis membranes. The first fraction contained 2-naphthol alone; the second contained the dye and 0.2837 g of β cyclodextrin (i.e., 5×10^−3 mol/l); the third contained the dye and 0.3317 g of the soluble cyclodextrin copolymer obtained using the method described in Example 1. The three membranes with the three different dye solutions were each immersed in 250 ml of distilled water. Diffusion of the dye from the interior of the membrane into the distilled water surrounding the membrane was monitored by determining the absorbance of the external solution at 327 nm. The absorbance values obtained for the external solutions for the three fractions after 76 hours of dialysis were 0.2865 for the first fraction, 0.3030 for the second fraction and only 0.2574 for the third fraction.

Compound: OC[C@H]1O[C@@H]2O[C@H]3[C@H](O)[C@@H](O)[C@@H](O[C@H]4[C@H](O)[C@@H](O)[C@@H](O[C@H]5[C@H](O)[C@@H](O)[C@@H](O[C@H]6[C@H](O)[C@@H](O)[C@@H](O[C@H]7[C@H](O)[C@@H](O)[C@@H](O[C@H]8[C@H](O)[C@@H](O)[C@@H](O[C@H]1[C@H](O)[C@H]2O)O[C@@H]8CO)O[C@@H]7CO)O[C@@H]6CO)O[C@@H]5CO)O[C@@H]4CO)O[C@@H]3CO [β cyclodextrin]
- absorbance of the external solution at 540 nm [1]: 0.1873
- absorbance of the external solution at 327 nm [2]: 0.3030
